In patent US20260374769A1, “Crystalline Forms Of An Imidazopyridine Derivative” (Arisan Therapeutics Inc., priority 2023, published 2026):
pIC50: −log10 of the molar value. ≈ marks a conversion by molar mass, not a printed value.

How the values were obtained:
CB1R = settings: cited from earlier work
[1] = Solid vapor diffusion (solid form after seven days at RT); type: physicochemical
Experimental: Solid vapor diffusion experiments were conducted using various solvents. […] The 20-mL vial was then sealed with a cap and kept at RT for seven days allowing solvent vapor to interact with sample. The remaining solids were isolated for XRPD analysis (Table 16).

[2] = Slurry at room temperature (solid form after three days); type: physicochemical
Experimental: Slurry experiments were conducted at room temperature in various solvent systems. […] After the suspension was stirred magnetically for three days at room temperature, the remaining solids were isolated for XRPD analysis (Table 14).

[3] = Hygroscopicity and sorption by DVS; type: physicochemical
Experimental: The hygroscopicity and the sorption properties of polymorphic Form A of Compound 1 were assessed using DVS.

[4] = Solubility in water and biorelevant media; type: physicochemical; settings: room temperature
[5] = Approximate solubility at room temperature in various solvents; type: physicochemical
[6] = Excipient compatibility study (4 weeks at 50 °C/75% RH); type: physicochemical
Experimental: The mixtures were placed in open containers and stored at 50 °C and 75% Relative Humidity (RH) for 4 weeks.

[7] = Slurry at 50 °C (solid form after two days); type: physicochemical
Experimental: Slurry experiments were conducted at 50 °C in various solvent systems. […] After the suspension was stirred magnetically for two days at 50 °C, the remaining solids were isolated for XRPD analysis (Table 15).

[8] = Water activity experiments (IPA/H2O); type: physicochemical
human CB1R = target: T1, human CB1R (Homo sapiens, UniProt P21554); assay: CB1R Human Cannabinoid GPCR Cell Based Antagonist cAMP Assay (HTRF, CHO-K1 cells, CP55940 EC80); settings: antagonist mode, CP55940 EC80, 20 uM forskolin, read-out: IC50 functional activity of CB1R
T1 construct: expressed in transfected cells; host or cells: CHO-K1
Experimental: CB1R Human Cannabinoid GPCR Cell Based Antagonist cAMP Assay
Evaluation of the potency (IC50) of Compound 1 for the human CB1R in stably transfected CHO-K1 cells was determined in a cAMP cell based assay using HTRF detection method. Cells were seeded in a total volume of 20 μL into white walled, 384-well microplates and incubated at 37 °C overnight prior to testing. Prior to testing cell plating media was exchanged with 10 μL of Assay buffer (HBSS+10 mM HEPES). Briefly, intermediate dilution of sample stocks was performed in assay buffer to generate a sample at 4× the final testing concentration. 5 μL of 4× sample was added to cells and incubated at 37 °C for 30 minutes. 5 μL of CP55940 at 4× the final EC80 concentration in 4× forskolin reagent (at 80 uM) was added and cells incubated for 37 °C for 30 minutes. The final concentration of forskolin in the assay was 20 uM. Final assay vehicle concentration was 1%. The results are expressed as a percent inhibition of CP55940 in antagonist mode.

rats = assay: 28-day GLP rat toxicity study; type: in vivo
Excerpt: The same suspension formulation used in the mouse obesity model was used for the rat GLP toxicity study.

obese C57BL/6J DIO mice = assay: Mouse DIO Obesity Study (four weeks, oral once a day); type: in vivo; settings: 4 weeks
Experimental: To determine if Compound 1 might have anti-obesity activity through CB1R antagonism a four week in vivo study in obese C57BL/6J DIO mice was initiated to investigate weight gain, food intake and fasting blood glucose levels (see Table 62 for experimental design). A GMP lot of Compound 1 at different doses was evaluated and compared to DIO mice dosed with vehicle alone. The compound was formulated as a homogenous suspension with Vitamin-E-TPGS, PEG400, Glycerol, Methylcellulose, 10 mM Sodium Citrate buffer pH6 and water. Animals were orally gavaged once-a-day with either test article or vehicle for 4 weeks.

T1 sequence (P21554 whole entry): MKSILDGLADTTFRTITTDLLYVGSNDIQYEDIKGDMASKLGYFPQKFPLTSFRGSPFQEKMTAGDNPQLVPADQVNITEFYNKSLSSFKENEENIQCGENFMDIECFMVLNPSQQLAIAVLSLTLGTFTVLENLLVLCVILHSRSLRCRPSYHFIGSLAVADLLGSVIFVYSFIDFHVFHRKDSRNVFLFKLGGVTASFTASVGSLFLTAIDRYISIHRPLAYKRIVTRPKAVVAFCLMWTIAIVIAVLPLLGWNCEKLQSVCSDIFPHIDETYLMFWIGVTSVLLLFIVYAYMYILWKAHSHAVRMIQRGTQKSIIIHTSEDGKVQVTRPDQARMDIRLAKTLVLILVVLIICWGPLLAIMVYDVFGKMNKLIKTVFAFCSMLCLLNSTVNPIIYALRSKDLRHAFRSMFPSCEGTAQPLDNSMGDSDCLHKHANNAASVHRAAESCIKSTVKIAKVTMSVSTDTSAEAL

Cc1c(C(=O)NN2CCCCC2)nn(-c2ccc(Cl)cc2Cl)c1-c1ccc(Cl)cc1 [Rimonabant]
cardiometabolic parameters (waist circumference, hemoglobin A1c, HDL, plasma cholesterol, triglycerides) (CB1R; clinical trials, obese people): improved multiple cardiometabolic parameters | weight loss (CB1R; clinical trials, obese people): weight loss in obese people | neuropsychiatric side-effects (CB1R; clinical use): withdrawn from clinical use due to its neuropsychiatric side-effects

Cc1cc2ncc(-c3ccc(OC(C)(C)C)cc3)n2cc1-c1ccc(OC(C)C)cc1 [Polymorphic Form A of Compound 1, 3-(4-(tert-butoxy)phenyl)-6-(4-isopropoxyphenyl)-7-methylimidazo[1,2-a]pyridine]
Solid Form ([1]; 2-MeTHF vapor): Gel | Solid Form ([1]; Acetone vapor): Form A | Solid Form ([1]; CPME vapor): Form D | Solid Form ([1]; EtOH vapor): Form F | Solid Form ([1]; IPA vapor): Form A | Solid Form ([1]; MEK vapor): Gel | Solid Form ([1]; MTBE vapor): Form A | Solid Form ([1]; Toluene vapor): Form A | Solid Form ([1]; n-Propanol vapor): Form A, Low Crystalline | Solid Form ([2]; RT, 1,4 Dioxane:H2O (3:7)): Form A | Solid Form ([2]; RT, ACN): Form A | Solid Form ([2]; RT, ACN:H2O (4:6)): Form A | Solid Form ([2]; RT, DCM:n-Heptane (2:8)): Form A | Solid Form ([2]; RT, DMF:H2O (3:7)): Form B | Solid Form ([2]; RT, DMSO): Form A | Solid Form ([2]; RT, DMSO:H2O (4:6)): Form B | Solid Form ([2]; RT, EtOH:n-Heptane (2:8)): Form C | Solid Form ([2]; RT, H2O): Form A | Solid Form ([2]; RT, MEK:n-Heptane (2:8)): Form A | Solid Form ([2]; RT, MTBE): Form A | Solid Form ([2]; RT, MTBE:n-Heptane (3:7)): Form D | Solid Form ([2]; RT, THF:n-Heptane (2:8)): Form A | Solid Form ([2]; RT, n-Heptane): Form A | weight increase (DVS) ([3]; 80% RH): ~ 0.28% | weight increase (DVS) ([3]; 95% RH): less than 0.5% | hygroscopicity ([3]; DVS): slightly hygroscopic | solubility at 24 h ([4]; FaSSIF, pH 6.73): 41 µg/mL (≈ 0.0989 mM) | solubility at 24 h ([4]; FeSSIF, pH 5.07): 224 µg/mL (≈ 0.54 mM) | solubility at 24 h ([4]; Simulated Gastric Fluid (SGF), pH 2.38): 532 µg/mL (≈ 1.28 mM) | solubility at 24 h ([4]; Water, pH 6.63): < 12.5 µg/mL | solubility ([5]; organic solvent or mixture, 1-4-dioxane): > 60 mg/mL | solubility ([5]; organic solvent or mixture, 1-Butanol): > 60 mg/mL | solubility ([5]; organic solvent or mixture, 2-MeTHF): > 56 mg/mL | solubility ([5]; organic solvent or mixture, 2 butanol): > 54 mg/mL | solubility ([5]; organic solvent or mixture, Acetone): > 56 mg/mL | solubility ([5]; organic solvent or mixture, Acetonitrile): 28 to 56 mg/mL (≈ 67.5 to 135 mM) | solubility ([5]; organic solvent or mixture, CPME): > 46 mg/mL | solubility ([5]; organic solvent or mixture, DCM): > 48 mg/mL | solubility ([5]; organic solvent or mixture, DMF): > 60 mg/mL | solubility ([5]; organic solvent or mixture, DMSO): 8 to 24 mg/mL (≈ 19.3 to 57.9 mM) | solubility ([5]; organic solvent or mixture, EtOH): > 48 mg/mL | solubility ([5]; organic solvent or mixture, IPAC): > 48 mg/mL | solubility ([5]; organic solvent or mixture, Isopropanol): > 52 mg/mL | solubility ([5]; organic solvent or mixture, MEK): > 52 mg/mL | solubility ([5]; organic solvent or mixture, MIBK): > 50 mg/mL | solubility ([5]; organic solvent or mixture, MTBE): 28 to 56 mg/mL (≈ 67.5 to 135 mM) | solubility ([5]; organic solvent or mixture, MeOH): > 48 mg/mL | solubility ([5]; organic solvent or mixture, THF): > 50 mg/mL | solubility ([5]; organic solvent or mixture, Toluene): > 46 mg/mL | solubility ([5]; organic solvent or mixture, n-Heptane): 2.8 to 9.3 mg/mL (≈ 6.75 to 22.4 mM) | solubility ([5]; organic solvent or mixture, n-Propanol): > 52 mg/mL | solubility ([5]; water, H2O): < 2.4 mg/mL | excipient compatibility [6]: compatible with all excipients and blends in Table 22 | Appearance ([6]; open containers): White granular powder. | degraded at 672 h ([6]; open containers, read-out: Total Related Substances): 0.3% | Solid Form ([7]; ACN): Form A | Solid Form ([7]; ACN:H2O (1:1)): Form E | Solid Form ([7]; DMSO): Amorphous | Solid Form ([7]; DSMO:H2O (1:1)): Amorphous | Solid Form ([7]; EtOH:H2O (1:1)): Form E | Solid Form ([7]; H2O): Form A | Solid Form ([7]; H2O:Acetone (7:3)): Form B | Solid Form ([7]; H2O:EtOH (6:4)): Form B, Low Crystalline | Solid Form ([7]; H2O:MeOH (7:3)): Form A | Solid Form ([7]; H2O:THF (7:3)): Form A | Solid Form ([7]; H2O:n-Propanol (6:4)): Form B, Peak Missing at 2- | Solid Form ([7]; MTBE): Form A | Solid Form ([7]; n-Heptane): Form A | Solid Form ([7]; n-Heptane:1,4-dioxane (19:1)): Gel | Solid Form ([7]; n-Heptane:Acetone (19:1)): Form A | Solid Form ([7]; n-Heptane:IPA (19:1)): Form B | Solid Form ([7]; n-Heptane:Toluene (19:1)): Form A | Solid Form ([8]; H2O aw = 1): Form A | Solid Form ([8]; IPA/H2O aw = 0.2, 982/18): Form A | Solid Form ([8]; IPA/H2O aw = 0.4, 956/44): Form A + B | Solid Form ([8]; IPA/H2O aw = 0.6, 919/81): Form C | Solid Form ([8]; IPA/H2O aw = 0.8, 847/153): Form C

Cc1cc2ncc(-c3ccc(OC(C)(C)C)cc3)n2cc1-c1ccc(OC(C)C)cc1 [Compound 1, 3-(4-(tert-butoxy)phenyl)-6-(4-isopropoxyphenyl)-7-methylimidazo[1,2-a]pyridine]
pIC50 (human CB1R): 5.42 | mean cholesterol vs vehicle (rats; 28-day GLP rat toxicity study, FIG. 17): significant dose-dependent decreases in mean cholesterol | cholesterol levels (rats; all doses tested including 10, 30 and 50 mg/kg/day, 28-day): significantly reduced | CNS effect (functional observational battery) (rats; rat 28-day GLP toxicity study): no evidence of CNS effect | food intake vs vehicle (obese C57BL/6J DIO mice; 30 mg/kg/day): significantly lower | body weight vs vehicle (obese C57BL/6J DIO mice; 10 and 30 mg/kg/day): significant decreases in body weight | fasting blood glucose vs vehicle (obese C57BL/6J DIO mice; oral once-a-day, FIG. 16): no significant effect on fasting blood glucose | percent weight gain vs vehicle (obese C57BL/6J DIO mice; oral once-a-day, group 4 and 5, FIG. 15): significant dose-dependent drop in percent weight gain | food intake vs vehicle (obese C57BL/6J DIO mice; oral once-a-day, group 5, FIG. 15): significant reduced food intake
